Assay results as given in US9732164B2, “Chitosan-derivative compounds and methods of controlling microbial populations” (SYNEDGEN, INC., priority 2006, dated 2017).

Test system: HeLa cells
Conditions: human, 48 h, 1 micromolar

`CC(=O)O[C@H]1C(=O)[C@@]2(C)[C@H]([C@H](OC(=O)c3ccccc3)[C@]3(O)C[C@H](OC(=O)[C@H](O)[C@@H](NC(=O)c4ccccc4)c4ccccc4)C(C)=C1C3(C)C)[C@]1(OC(C)=O)CO[C@@H]1C[C@@H]2O` [taxol] was tested, and the HeLa cells killed was about 100%.
